This assay deals with HVA calcium channel. The assay is classed as cell-based, rat.

Consider one molecule from US10501498B2 (BGI SHENZHEN, priority 2014, dated 2019).

For the molecule `COC(=O)C1=C(C)NC(C)=C(C(=O)OC)C1c1ccccc1[N+](=O)[O-]` [Nifedipine, reference compound], the current after loading is on record as −734.31 pA. The inhibition rate (10 µM) came out at 50.09%.
